Consider two molecules from US7521239B2, “Photochemical internalization for virus-mediated molecule delivery into the cyosol” (priority 2000, dated 2009).

For assay [1], the system named is HCT 116 adenocarcinoma cells. Nature of the assay: MTT cell survival after PCI-induced transduction with AdV-TK and ganciclovir. The format is cell-based, human. As to the method:
HCT 116 adenocarcinoma cells were infected with an adenovirus gene therapy vector encoding the HSV-tk gene (AdV-TK) and subjected to PCI-treatment. Conditions for infection were as described under “Experimental protocols” (MOI=5). 2 days after infection, different concentrations of ganciclovir (GCV) was added, and the cells were incubated further for 3 days before analysis of cell survival by the MTT method. This method is based on reduction of a water-soluble tetrazolium salt (MTT) to a purple, insoluble formazan product by mitochondrial dehydrogenases present in living, metabolically active cells. One ml medium containing […] is added to the cells, followed by 4 h incubation (37° C., 5% v/v CO2). The resulting formazan crystals are dissolved by adding 200 μl isopropanol (Sigma, Mo., USA) per well. The solution is transferred to a 96 wells plate which is read by a Multiskan EX microplate reader (Labsystems, Finland) with a 570 nm bandpass filter.

The next assay relates to WiDr cells. Nature of the assay: Flow cytometry of β-galactosidase transduction in WiDr cells (AlPcS2a, red light). The conditions noted are these: photochemical treatment alone (Ad−, S+). The class given is cell-based, human. As to the method:
(§1) HCT 116 and WiDr human colon carcinoma cells were obtained from American Type Culture Collection (ATCC nos. CCL-247 and CCL-218, respectively). Cells were cultured in RPMI 1640 medium containing 10% fetal calf serum, 100 U/ml penicillin, […] and 2 mM glutamine (all Gibco BRL, Paisley, UK) at 37° C. in 5% CO2 atmosphere.
(§2) The recombinant adenovirus AdHCMV-lacZ encoding the E. coli lacZ gene controlled by the human cytomegalovirus promoter was obtained by homologous recombination using the pJM17 system in 293 cells (Addison et al., 1997, J. Gen. Virol. 78: 1653-61). Recombinant vectors were plaque purified, grown to high titer in 293 cells and purified by CsCl banding (Hitt et al., 1995, Methods Mol. Genet. 7:13-30). The virus-solution was diluted in PBS containing 0.68 mM CaCl2 and 0.5 mM MgCl2 to the MOIs employed in the different experiments. […]
(§3) The cells were trypsinised, centrifuged, resuspended in 25 ml medium and incubated for 5 min at 37° C. […] The samples were kept on ice for 30-60 min, filtered through a […] mesh nylon filter and analyzed in a FACS-Calibur flow cytometer (Becton Dickinson). […] Fluorescein-fluorescence was measured through a 510-530 nm filter after excitation with an argon laser (15 mW, 488 nm). […] The data were analyzed with the CELLQuest Software (Becton Dickinson).

For a further assay, the system named is HCT 116 cells. Nature of the assay: Flow cytometry of β-galactosidase transduction in HCT 116 cells (AlPcS2a, red light). The class given is cell-based, human. As to the method: as §1, §2, §3
(A flow cytometer gives signals particle by particle.)

Assay [2] deals with human WiDr adenocarcinoma cells. Nature of the assay: X-gal staining of photochemically transduced WiDr cells. The class given is cell-based. The conditions noted are these: AlPcS2a and light, no adenovirus. On the procedure: 50 000 cells per well were seeded in 6-well plates (Costar,) and incubated overnight at 37° C. 1 ml medium containing […] AlPcS2a (Phorphyrin Products, Logan, Utah) was added, the cells were incubated for 18 h at 37° C., washed three times with medium and incubated for another 3 h at 37° C. The medium was removed and 200 μl of AdHCMV-lacZ was added. After incubation for 30 min at 37° C., 2 ml medium was added and the cells were incubated for 30 min before exposure to red light (Phillips TL 20 W/09, filtered through a Cinemoid 35 filter, with a light intensity reaching the cells of 13.5 W/m2). Before analysis of β-galactosidase activity the cells were incubated at 37° C. for two days.
For X-gal (5-bromo-4 chloro 3 indolyl-β-D-galactopyranoside) staining the medium was discarded, 1 ml of fixative solution (0,05% glutaraldehyde in PBS) was added and the cells were incubated at room temperature for 15 min. The fixative solution was discarded and the cells were washed three times in PBS at room temperature (second rinse was for 10 min, first and third rinses were performed quickly). 1 ml X-gal solution (5 mM K3Fe(CN)6, 5 mM K4Fe(CN)6, 1 mM MgCl2, 1 mg/ml X-gal) was added and the cells were incubated for 4 h to overnight at 37° C. and observed by microscopy (100× magnification) using an Axiovert S100 microscope (Zeiss) with an MC100 Spot camera (Zeiss).

Take `Nc1nc(O)c2ncn(COC(CO)CO)c2n1` [GCV, ganciclovir]: the “GCV-mediated cell killing (cell survival, MTT)” value in assay [1] (control: photosensitizer + GCV, no AdV-TK) is listed as “no such effect”.
Regarding “aluminum phthalocyanine with 2 sulfonate groups on adjacent rings [AlPcS2a]”, the “GCV-mediated cell killing (cell survival, MTT)” value in assay [1] (control: only photosensitizer treatment) is reported as “no such effect”. Besides, the “change in percentage of positive cells” value in the assay with WiDr cells is “did not significantly change”. The “percentage of β-galactosidase positive cells” value in the assay on HCT 116 cells (Ad−, S+, 8 min light) stood at 0.4%. In addition, the “mean fluorescence in non-infected cells” value in the assay on HCT 116 cells (photochemical treatment (AlPcS2a + light), no adenovirus) was found to be 12 RFU. Further, the “β-galactosidase expressing cells (X-gal staining, microscopy)” value in assay [2] is “No positive cells”.
